Patent publication US20020106348A1, “Cancer therapeutics involving the administration of 2-methoxyestradiol and an agent that increases intracellular superoxide anion” (priority 2000, published 2002)
Structures can show the parent of a compound that is named as a salt. Where two headings read alike, the source gives them in different places.

Key:
CuZnSOD = test: Inhibition of CuZnSOD by estrogen derivatives; type: biochemical; details: FIG. 20
HL-60 = test: Apoptosis / nucleosomal DNA fragmentation in HL-60 cells; type: cell-based, human; details: for DNA fragmentation (apoptosis) in HL-60 cells: estrogen derivatives, FIG. 20; for effect on 2-ME-induced apoptosis: HL-60, 1 μM 2-ME plus antioxidant
[1] = cited from earlier work; for elimination half-life: intravenous
CLL cells [2] = details: for protection from toxic effect of 2-ME: antioxidant added to 2-ME-treated CLL cells
CLL cells [3] = test: Cellular O2^- by hydroethidine flow cytometry, CLL cells; type: cell-based, human; details: addition of NAC to 2-ME-treated CLL cells
Procedure: The method using hydroethidine to detect O2^− in tissue sections was adapted for quantitation of intracellular O2^− by flow cytometry analysis. This assay is based on the unique chemical properties of hydroethidine, a weak blue fluorescent dye which is selectively converted by O2^− to ethidium with a bright red fluorescence. The control and drug-treated cells (1.5×10^6/sample) were incubated with hydroethidine (20 ng/ml) for 60 min, washed twice with 3 ml PBS, resuspended in 2 ml PBS, and then analyzed within 1 h by flow cytometry, using the red laser channel.

[4] = system: leukemia cells from a CML (chronic myelogenous leukemia) patient in relapsed blast crisis; test: Induction of apoptosis in primary leukemia cells from a CML patient; type: cell-based, human; details: in vitro
HL-60 cells = test: Cellular O2^- by flow cytometry, HL-60 cells; type: cell-based, human; details: 0.25 μM
[5] = molecular target: NADH:ubiquinone oxidoreductase; phorbol ester-induced ornithine decarboxylase (ODC); details: Fang et al, 1998; read-out: IC50 values, NADH:ubiquinone oxidoreductase inhibition / blocking ODC induction; cited from earlier work
c-myc protein = c-myc protein expression in B CLL cells; type: cell-based, human; details: Rituxan alone

C[C@]12CC[C@@H]3c4cc(O)c(O)cc4CC[C@H]3[C@@H]1CC[C@@H]2O [2-hydroxyestradiol]
inhibition of SOD activity (CuZnSOD): substantially inhibited SOD activity | DNA fragmentation (apoptosis) in HL-60 cells (HL-60): induced DNA fragmentation

COc1cc2c(cc1O)CC[C@@H]1[C@@H]2CC[C@]2(C)C(=O)CC[C@@H]12 [2-methoxyestrone]
inhibition of SOD activity (CuZnSOD): substantially inhibited SOD activity | DNA fragmentation (apoptosis) in HL-60 cells (HL-60): induced DNA fragmentation

C[C@]12CC[C@@H]3c4ccc(O)cc4CC[C@H]3[C@@H]1CC[C@@H]2O [17β-estradiol]
inhibition of SOD activity (CuZnSOD): minimal activity against SOD | DNA fragmentation (apoptosis) in HL-60 cells (HL-60): little DNA fragmentation

COc1cccc2c1C(=O)c1c(O)c3c(c(O)c1C2=O)C[C@@](O)(C(C)=O)C[C@@H]3O[C@H]1C[C@H](N)[C@H](O)[C@H](C)O1 [Daunorubicin, 5,12-Naphthacenedione, (8S-cis)-8-acetyl-10-[(3-amino-2,3,6-trideoxy-α-L-lyxo-hexanopyranosyl)oxy]-7,8,9,10-tetrahydro-6,8,11-trihydroxy-10-methoxy-, hydrochloride]
secreted into the bile ([1]; in vivo): ~40% | elimination half-life [1]: about 19 hr

COc1cccc2c1C(=O)c1c(O)c3c(c(O)c1C2=O)C[C@@](O)(C(=O)CO)C[C@@H]3O[C@H]1C[C@H](N)[C@H](O)[C@H](C)O1 [Doxorubicin, 5,12-Naphthacenedione, (8s-cis)-10-[(3-amino-2,3,6-trideoxy-α-L-lyxo-hexopyranosyl)oxy]-7,8,9,10-tetrahydro-6,8,1-trihydroxy-8-(hydroxyacetyl)-1-methoxy-hydrochloride]
elimination half-life [1]: about 30 hr

CC(=O)N[C@@H](CS)C(=O)O [N-acetylcysteine, reference compound]
protection from toxic effect of 2-ME (CLL cells [2]): protective effect | protection from toxic effect of 2-ME (CLL cells [2]; listed as NAC): protected the cells from the toxic effect of 2-ME | cellular O2^− in 2-ME-treated cells (CLL cells [3]): reduced the accumulation of cellular O2^− | effect on 2-ME-induced apoptosis (HL-60): 2-ME-induced apoptosis was significantly reduced

Nc1c(Br)cc(Br)cc1CN[C@H]1CC[C@H](O)CC1 [ambroxol]
effect on 2-ME-induced apoptosis (HL-60): 2-ME-induced apoptosis was significantly reduced

Nc1ccn([C@@H]2O[C@H](CO)[C@@H](O)[C@@H]2O)c(=O)n1 [ara-C, reference compound]
apoptosis in primary CML cells [4]: resistant

COc1cccc2c1C(=O)c1c(O)c3c(c(O)c1C2=O)C[C@@](O)([C@H](C)O)C[C@@H]3O[C@H]1C[C@H](N)[C@H](O)[C@H](C)O1 [daunorubicinol]
elimination half-life [1]: about 27 hr

C=C(C)[C@H]1Cc2c(ccc3c2O[C@@H]2COc4cc(OC)c(OC)cc4[C@@H]2C3=O)O1 [rotenone, reference compound]
cellular O2^− content (HL-60 cells): increase of cellular O2^− | IC50 [5]: 0.8 to 4 nM

Rituxan: antibody specific for CD20 antigen on B lymphocyte
killing of CLL cells (CLL cells [2]; Rituxan alone, various concentrations): did not result in any significant killing | enhancement of 2-ME activity (CLL cells [2]; cells sensitive or resistant to 2-ME): did not significantly enhance the activity of 2-ME | c-myc protein expression (c-myc protein): increased expression of c-myc protein

Sodium Arsenate [reference compound]
sensitivity to single agent (CLL cells [2]; 2-ME-resistant CLL cells): insensitive to either drug alone | sensitivity to single agent (CLL cells [2]; CLL cells of the two sensitive patients): relatively sensitive
